From patent US11028072B2, “2,4-diamino-6-ethylpyrimidine derivatives with antimalarial activities against Plasmodium falciparum” (National Science and Technology Development Agency, priority 2015, dated 2021) come the findings set out here.

As a reminder, the melting point is the temperature, or range, at which the solid turns liquid.

Counter-ions that a name gives are not always drawn.

`CCc1nc(N)nc(N)c1-c1cn(CCc2ccccc2)nn1` (as salt: hydrochloride) [Compound 7] displayed a melting point of 203 to 204.5 °C.
`CCc1nc(N)nc(N)c1OCc1cn(Cc2ccc(C(=O)O)cc2)nn1` (as salt: hydrochloride) [Compound 29]: the melting point is 223.8 to 224.8 °C.
As for `CCc1nc(N)nc(N)c1OCc1csc(-c2cccc(C(=O)OC)c2)n1` (as salt: hydrochloride) [Compound 65], the melting point is 224.5 to 226.5 °C.
Molecule `CCc1nc(N)nc(N)c1OCc1cc(-c2ccccc2)no1` (as salt: hydrochloride) [Compound 33] returned a melting point of 221.5 to 222.5 °C.
Turning to `CCc1nc(N)nc(N)c1-c1cn(CCCOc2ccc(Cl)cc2)nn1` (as salt: hydrochloride) [Compound 11], the melting point fell in the range of 222.5 to 223.5 °C.
`CCc1nc(N)nc(N)c1OCc1coc(-c2ccc(OCC(=O)O)cc2)n1` (as salt: hydrochloride) (hydrate or solvate) [Compound 57] gave a melting point of 195.5 to 197.5 °C.
`CCc1nc(N)nc(N)c1OCc1cn(-c2cccc(C(=O)OC)c2)nn1` (as salt: hydrochloride) [Compound 15] displayed a melting point of 211 to 212 °C.
Turning to `CCc1nc(N)nc(N)c1OCc1csc(-c2ccc(OC)cc2)n1` (as salt: hydrochloride) [Compound 68], the melting point lay in the range of 228 to 229 °C.
Under `CCc1nc(N)nc(N)c1OCc1coc(-c2ccc(OCC(=O)OCc3ccccc3)cc2)n1` (as salt: hydrochloride) (hydrate or solvate) [Compound 56] stands 191.5 to 192.5 °C; under `CCc1nc(N)nc(N)c1-c1cn(Cc2ccc(C(=O)OC)cc2)nn1` (as salt: hydrochloride) [Compound 4], 222 to 223 °C; under `CCc1nc(N)nc(N)c1OCc1cc(-c2ccc([N+](=O)[O-])cc2)no1` (as salt: hydrochloride) [Compound 43], 216 to 218 °C.
`CCc1nc(N)nc(N)c1OCc1csc(-c2cccc(C)c2)n1` (as salt: hydrochloride) [Compound 61] registered a melting point of 232 to 233 °C.
In the case of `CCc1nc(N)nc(N)c1OCc1csc(-c2ccc(C)cc2)n1` (as salt: hydrochloride) [Compound 67] it was 235 to 236 °C; in that of `CCc1nc(N)nc(N)c1OCc1cn(Cc2cccc(C(=O)O)c2)nn1` (as salt: hydrochloride) [Compound 26], 170 to 171 °C; in that of `CCc1nc(N)nc(N)c1OCc1cn(-c2ccc([N+](=O)[O-])cc2)nn1` (as salt: hydrochloride) [Compound 17], 209 to 210.5 °C.
`CCc1nc(N)nc(N)c1-c1cn(Cc2ccccc2)nn1` (as salt: hydrochloride) [Compound 3] returned a melting point of 255.5 to 256.5 °C.
Take `CCc1nc(N)nc(N)c1OCCc1cn(Cc2ccc(O)cc2)nn1` (as salt: hydrochloride) [Compound 30]: the melting point lay in the range of 213 to 215 °C.
Under `CCc1nc(N)nc(N)c1OCCCc1cc(-c2cccc(C(=O)OC)c2)no1` (as salt: hydrochloride) [Compound 48] stands 188 to 189.5 °C; under `CCc1nc(N)nc(N)c1OCCc1csc(-c2ccccc2)n1` (as salt: hydrochloride) [Compound 76], 215 to 217 °C; under `CCc1nc(N)nc(N)c1OCc1cc(-c2ccc(Cl)cc2)no1` (as salt: hydrochloride) [Compound 35], 230 to 231.5 °C.
`CCc1nc(N)nc(N)c1OCc1csc(-c2ccc(Cl)cc2)n1` (as salt: hydrochloride) [Compound 70] displayed a melting point of 230 to 232 °C.
Molecule `CCc1nc(N)nc(N)c1-c1cn(CCOc2ccc(Cl)cc2)nn1` (as salt: hydrochloride) [Compound 9] came in with a melting point of 173.5 to 175 °C.
In turn, `CCc1nc(N)nc(N)c1OCCCc1cn(-c2cccc(C(=O)O)c2)nn1` (as salt: hydrochloride) [Compound 23] gave a melting point of 230.5 to 231.5 °C.
Turning to `CCc1nc(N)nc(N)c1OCc1csc(-c2ccc(C(=O)OC)cc2)n1` (as salt: hydrochloride) [Compound 74], the melting point lay in the range of 217 to 219 °C.
On to `CCc1nc(N)nc(N)c1OCc1cn(Cc2cc(F)c(O)c(F)c2)nn1` (as salt: hydrochloride) [Compound 27], for which the melting point fell in the range of 224.7 to 226 °C.
`CCc1nc(N)nc(N)c1OCc1csc(-c2cccc(OCC(=O)O)c2)n1` (as salt: hydrochloride) (hydrate or solvate) [Compound 64] gave a melting point of 191 to 193 °C.
Consider `CCc1nc(N)nc(N)c1OCc1cc(-c2ccc(C(=O)O)cc2)no1` (as salt: hydrochloride) [Compound 44], for which the melting point was 242 to 244 °C.
The molecule `CCc1nc(N)nc(N)c1OCc1csc(-c2ccc(OCC(=O)OCc3ccccc3)cc2)n1` (as salt: hydrochloride) (hydrate or solvate) [Compound 72] returned a melting point of 178 to 180 °C.
In turn, `CCc1nc(N)nc(N)c1-c1cn(Cc2ccc(C(=O)O)cc2)nn1` (as salt: hydrochloride) [Compound 5] returned a melting point of 270 to 272 °C.
Take `CCc1nc(N)nc(N)c1OCc1csc(-c2ccc(F)cc2)n1` (as salt: hydrochloride) [Compound 69]: the melting point fell in the range of 226 to 227 °C.
Under `CCc1nc(N)nc(N)c1OCc1coc(-c2cccc(OCC(=O)OCc3ccccc3)c2)n1` (as salt: hydrochloride) (hydrate or solvate) [Compound 53] stands 163.5 to 164.5 °C.
Under `CCc1nc(N)nc(N)c1OCCCc1cn(-c2ccc(C(=O)OC)cc2)nn1` (as salt: hydrochloride) [Compound 24] stands 208 to 209.5 °C; under `CCc1nc(N)nc(N)c1OCc1cc(-c2ccc(Br)cc2)no1` (as salt: hydrochloride) [Compound 36], 238 to 239.5 °C.
In the case of `CCc1nc(N)nc(N)c1OCc1cc(-c2cccc(OC)c2)no1` (as salt: hydrochloride) [Compound 38] it was 211.5 to 212.5 °C.
On to `CCc1nc(N)nc(N)c1-c1cn(-c2ccccc2)nn1` (as salt: hydrochloride) [Compound 1], for which the melting point was in the range of 273.2 to 274.5 °C.
For the molecule `CCc1nc(N)nc(N)c1OCc1cn(-c2cccc([N+](=O)[O-])c2)nn1` (as salt: hydrochloride) [Compound 14], the melting point lay in the range of 236 to 237 °C.
Turning to `CCc1nc(N)nc(N)c1OCc1coc(-c2ccccc2)n1` (as salt: hydrochloride) [Compound 50], the melting point is 231 to 232 °C.
Turning to `CCc1nc(N)nc(N)c1OCc1csc(-c2ccc(Br)cc2)n1` (as salt: hydrochloride) [Compound 71], the melting point lay within 236 to 238 °C.
`CCc1nc(N)nc(N)c1OCc1csc(-c2cccc(OCC(=O)OCc3ccccc3)c2)n1` (as salt: hydrochloride) (hydrate or solvate) [Compound 63] showed a melting point of 175 to 177 °C.
As to `CCc1nc(N)nc(N)c1OCc1csc(-c2ccc(C(=O)O)cc2)n1` (as salt: hydrochloride) [Compound 75], the melting point was 213 to 214 °C.
In turn, `CCc1nc(N)nc(N)c1-c1cn(CCOc2ccc(C(=O)OC)cc2)nn1` (as salt: hydrochloride) [Compound 10] returned a melting point of 225 to 226 °C.
`CCc1nc(N)nc(N)c1OCc1cc(-c2ccc(F)cc2)no1` (as salt: hydrochloride) [Compound 34]: the melting point was in the range of 231 to 232 °C.
Molecule `CCc1nc(N)nc(N)c1OCc1csc(-c2ccccc2)n1` (as salt: hydrochloride) [Compound 60] yielded a melting point of 220 to 222 °C.
With `CCc1nc(N)nc(N)c1OCCCc1cc(-c2cccc(C(F)(F)F)c2)no1` (as salt: hydrochloride) [Compound 46], the melting point lay within 216.5 to 218 °C.
For `CCc1nc(N)nc(N)c1OCCCc1cn(-c2ccc(C(=O)O)cc2)nn1` (as salt: hydrochloride) [Compound 25], the melting point fell in the range of 239.5 to 241.5 °C.
Regarding `CCc1nc(N)nc(N)c1OCc1cc(-c2ccc(C(F)(F)F)cc2)no1` (as salt: hydrochloride) [Compound 41], the melting point lay within 173 to 174.5 °C.
Turning to `CCc1nc(N)nc(N)c1OCCc1cn(-c2cccc(C(=O)O)c2)nn1` (as salt: hydrochloride) [Compound 20], the melting point lay in the range of 246 to 247 °C.
On to `CCc1nc(N)nc(N)c1OCc1cn(-c2ccc(C(=O)OC)cc2)nn1` (as salt: hydrochloride) [Compound 18], for which the melting point was in the range of 197.5 to 199 °C.
For `CCc1nc(N)nc(N)c1OCc1coc(-c2cccc(OCC(=O)O)c2)n1` (as salt: hydrochloride) (hydrate or solvate) [Compound 54], the melting point was in the range of 203 to 204 °C.
As for `CCc1nc(N)nc(N)c1OCc1cc(-c2ccc(OC)cc2)no1` (as salt: hydrochloride) [Compound 42], the melting point fell in the range of 214 to 216 °C.
